Marks after values point to notes of the source that are not given here.
Key:
FaDu cells [1] = test: SRB assay of cell number, AZT and paclitaxel; format: cell-based, human; details: 24 hr
Method: In brief, cells were seeded onto 96-well plates. To avoid changes in drug concentration caused by excessive evaporation of medium in wells located at the edge of the plate only the inner wells in 96-well plates were used. The outer wells contained only tissue culture media to serve as blanks. At the end of drug treatment, the culture medium was removed from the wells by aspiration and the cells were then fixed by incubating with 0.2 ml 10% trichloroacetic acid at 4° C. for 1 hr, followed by five washes with distilled water. The plates were then air-dried after which SRB solution (0.05 ml of 0.4%) was added to stain cells for 10 min at room temperature. […] The amount of SRB was measured by absorbance at 490 nm using an EL 340 microplate biokinetics reader (Bio-Tek Instruments, Inc., Winooski, Vt.). The absorbance is proportional to the number of cells attached to the culture plate. […]
Drug activity evaluation. Agent effect was measured in three ways, i.e., enumeration of the number of cells that remained attached in culture flask, enumeration of the number of cells that detached from the growth surface, and by measuring changes in apoptosis. […] The remaining cell number after agent treatment was measured using the sulforhodamine B (SRB) assay. The drug-induced detachment of cells from the growth surface was determined by counting the attached and detached cells. […]

SKOV3 cells = test: FISH detection of damaged telomeres after paclitaxel treatment; format: cell-based, human; details: 200 nM paclitaxel
Text: Fluorescent in situ hybridization (FISH). Fluorescent in situ hybridization (FISH) was used to identify the presence and to estimate the approximate length of individual telomere structures at the end of chromosomes. The FISH method used was a modification of a previously published method (Multani A S et al. (1996) Anticancer Res 16: 3435-3438; Henderson S et al. (1996) J Cell Biol 134:1-12), and consists of the following three steps: (a) the cells are fixed in a manner that promotes spreading of the chromosomes, (b) a nucleotide sequence complementary to the telomere sequence is used as probe to bind to the telomeres and to provide a point of attachment for fluorescently-labeled antibodies, and (c) the fluorescent signal is identified using fluorescent microscopy.
The methods are as follows. To spread the chromosomes, the cell pellet was incubated with a hypotonic solution (75 mM KCl) at 37° C. for 20 min, washed three times and fixed with acetic acid and methanol, dropped onto slides, air-dried, and denatured in 2×SSC and 70% formamide at 74° C. for 5 min. To detect the telomeres, the cells were incubated with a digoxigenin-labeled human telomeric probe (Oncor) at 37° C. for 16 to 18 hr. The slides were washed consecutively in 2×SSC at 42° C. and 72° C., each time for 5 min. After blocking with 5% skim milk for 10 min, cells were incubated sequentially with rhodamine-labeled (red color) anti-digoxigenin, rabbit anti-sheep, and rhodamine-labeled anti-rabbit antibodies, at room temperature for 30 min. Between each step, the slides were washed three times in 130 mM phosphate buffer, pH 7.4, 0.1% Triton X-100, each time for 5 min. The chromosomes were then counterstained with 0.1 μg/ml of […] (blue color) and examined under a fluorescence microscope at 100× magnification using a triple band pass filter at 340 nm.

telomere length = test: TALA telomere length, paclitaxel and AZT alone or in combination; format: cell-based, human
Text: The effect of paclitaxel and AZT, alone or in combination, on telomere length was studied using TALA.

FaDu cells [2] = test: Cell detachment from the growth surface; format: cell-based, human; details: 200 nM paclitaxel, end of 48-hr treatment
Method: (§1) Upon drug treatment, the supernatant along with two subsequent Versene rinses, which contained the detached cells, were collected. […] These samples were centrifuged at 1500 rpm for 10 min and the resulting cell pellets were resuspended in 2 ml of culture media. The cell number in the detached and attached fractions were counted using a Coulter counter (Coulter Electronic, Inc., Hialeah, Fla.).
Treatment with the above agents was initiated after cells were allowed to attach to the growth surface in culture flasks. On the day of experiments, the culture medium was removed and replaced with drug-containing medium. […] For d4T, two concentrations, 20 μM and 40 μM were used.
Agent effect was measured in three ways, i.e., enumeration of the number of cells that remained attached in culture flask, enumeration of the number of cells that detached from the growth surface, and by measuring changes in apoptosis. […] The drug-induced detachment of cells from the growth surface was determined by counting the attached and detached cells.

[3] = tested on: telomerase activity of FaDu cells; test: TRAP telomerase activity in drug-treated cells; format: cell-based, human; details: 200 nM paclitaxel
Method: For the preparation of cell and tissue extracts, cells and tissue were harvested, washed, and stored at −70° C. Cells were then lysed in a SDS-based lysis buffer (10 mM Tris.HCl, pH 7.5, 1 mM MgCl2, 1 mM EGTA, 0.1 mM phenylmethylsulfonyl fluoride, 5 mM β-mercaptoethanol, 0.1% CHAPS, and 10% glycerol), on ice for 10 min. To this mixture, three volumes of CHAPS-based buffer (10 mM Tris-HCl, pH 7.5, 1 mM MgCl2, 1 mM EGTA, 0.1 mM phenylmethylsulfonyl fluoride, 5 mM β-mercaptoethanol, 0.5% CHAPS, and 10% glycerol) were added and kept on ice for 5 min. […] For the extraction of tissues, tissues were homogenized in SDS-based lysis buffer with a Kontes pellet pestle (Fisher, Pittsburgh, Pa.), mixed with three volumes of CHAPS-based buffer, and centrifuged were centrifuged at 8,000 g for 15 min at 4° C. The supernatant was kept at −20° C. The protein concentration of the supernatant was determined using Bicinchoninic Acid Kit (Sigma, St Louis, Mo.). The protein concentration was adjusted to 0.5 μg/μl with CHAPS-based buffer. Samples with equal amounts of protein (1-2 μg) were analyzed by TRAP. […] The TRAP reaction mixture contained 2-4 μl of protein extract, 20 mM Tris.HCl (pH 8.3), 1.5 mM MgCl2, 63 mM KCl, 0.005% Tween-20, 1 mM EGTA, 50 μM dNTPs, 0.1 μg of TS primer, 0.1 mg/ml bovine serum albumin. The mixture was incubated at 30° C. for 30 min, then at 90° C. for 2 min.
This was accomplished by using phenol/chloroform extraction of the cell lysate, as follows. One μg of tRNA and 0.1 ng internal control template were added to the reaction solution after primer extension. The total volume of the mixture was brought to 100 μl with water, mixed with an equal volume of buffer saturated phenol (Life Technology) and then centrifuged at 18,000 g for 3 min, at room temperature. The top aqueous layer (90 μl) was carefully transferred to a new tube and mixed with an equal volume of chloroform:isoamyl alcohol (24:1) solution and centrifuged at 18,000 g for 3 min, at room temperature. The top aqueous layer (80 μl) was again transferred to a new tube and the nucleotides were precipitated with 0.2 volume of 3 M sodium acetate (pH 5.3) and 3 volume of 100% ethanol at −70° C. for at least 2 hr. The mixture was centrifuged at 18,000 g for 15 min at 4° C. […]
(§2) The template for the internal standard was amplified by PCR and purified by spin columns (QIAquick PCR purification kit, Qiagen, Valencia, Calif.). The concentration was determined by a spectrophotometer.
PCR was performed on the GeneAmp PCR system 2400 (Perkin Elmer) and initiated by 1 cycle at 94° C. for 3 min, 50° C. for 4 min, and 68° C. for 2 min, then 25 rounds at 94° C. for 30 sec, 50° C. for 30 sec, and 68° C. for 90 sec, followed by 68° C. for 10 min. […] The gel was then dried and the amplification products were detected. […]

[4] = mouse, in vivo
Method: (§3) The activity of paclitaxel, with or without AZT, was evaluated in immunodeficient mice (male Balb/c nu/nu mice, 6-8 weeks old) bearing the human pharynx FaDu xenografts. […] The saline control group received injections of 200 μl/day of physiological saline of five consecutive days. The paclitaxel group received injections of 10 mg/kg/day paclitaxel dissolved in Cremophor and ethanol (i.e., Taxol) in a volume of 200 μl for five consecutive days. The AZT group received a seven-day infusion of AZT at a rate of 200 ng/hr by a subcutaneously implanted Alzet minipump. […] Animal weights and tumor sizes were measured on days 1, 3, 6, 8, and 10 after initiation of the paclitaxel treatment.

FaDu, MCF7 and PC3 cells = test: Cell Death Detection ELISA, release of DNA-histone complex; format: cell-based, human; details: single agents vs untreated controls
Method: Apoptosis was measured as the release of DNA-histone complex from the nucleus to the cytoplasm, using the Cell Death Detection ELISA kit which quantifies the amount of DNA-histone complex released into the cytoplasm. Briefly, drug-treated cells were collected and lysed in the lysis buffer. The cytoplasmic fractions of the lysates were placed in wells of a 96-well microtiter plate pre-coated with mouse antihistone primary antibody and mouse anti-DNA-antibody conjugated to peroxidase. The peroxidase substrate, 2,2′-azido-di-[3-ethylbenzthiazoline sulfonate], was applied and the absorbance at 405 nm was measured.
Treatment Protocol. Treatment with the above agents was initiated after cells were allowed to attach to the growth surface in culture flasks. […]
Drug activity evaluation. Agent effect was measured in three ways, i.e., enumeration of the number of cells that remained attached in culture flask, enumeration of the number of cells that detached from the growth surface, and by measuring changes in apoptosis. […] The remaining cell number after agent treatment was measured using the sulforhodamine B (SRB) assay. The drug-induced detachment of cells from the growth surface was determined by counting the attached and detached cells. Drug-induced apoptosis was measured using the Cell Death Detection ELISA kit which measures the release of DNA-histone complex from the nucleus to the cytoplasm. […]

[5] = Host toxicity (body weight, death) in xenograft-bearing mice; details: single agents
Method: as §3

PC3 cells = test: Cell detachment from the growth surface; format: cell-based, human; details: 20 nM paclitaxel, end of 96-hr experiment
Method: as §1

[6] = tested on: telomerase activity in histocultures of FaDu xenograft tumors; test: TRAP telomerase activity in tumor histocultures; format: cell-based, human; details: 1 μM paclitaxel
Method: Histocultures of solid tumors. Histocultures are cultures of tumor fragments where the three dimensional structure and the heterogeneous tissue composition are maintained. […] Tumor specimens were washed three times with culture medium for three times and dissected into about 1 mm^3 fragments under sterile conditions. The culture medium for the FaDu histocultures was MEM supplemented with 9% heat-inactivated FBS, 2 mM glutamine, 90 μg/ml gentamicin and 90 μg/ml cefotaxime sodium.
For the preparation of cell and tissue extracts, cells and tissue were harvested, washed, and stored at −70° C. […] The protein concentration of the supernatant was determined using Bicinchoninic Acid Kit (Sigma, St Louis, Mo.). […] Samples with equal amounts of protein (1-2 μg) were analyzed by TRAP. […]
as §2
PCR was performed on the GeneAmp PCR system 2400 (Perkin Elmer) and initiated by 1 cycle at 94° C. for 3 min, 50° C. for 4 min, and 68° C. for 2 min, then 25 rounds at 94° C. for 30 sec, 50° C. for 30 sec, and 68° C. for 90 sec, followed by 68° C. for 10 min. […] The gel was then dried and the amplification products were detected.

[7] = tested on: human pharynx FaDu xenografts; test: Antitumor effect in mice bearing FaDu xenografts
Method: as §3
The antitumor effect of the drug treatments was measured in three ways. The first was the reduction in tumor size. Tumor sizes were determined by first preparing a mold of the extruding tumor using Jeltrate, a rapidly setting molding material, and then preparing and weighing the countermold. Second, the apoptotic effect was measured. […] The tumor sections were evaluated morphologically for tumor cell density, and density of apoptotic cells. […] Third, the ability of drug treatment to prolong the survival time was measured. For this study, the animals were monitored for 100 days, or until moribundity, defined by a tumor length exceeding 1.0 cm, was reached.

CC(=O)O[C@H]1C(=O)[C@@]2(C)[C@H]([C@H](OC(=O)c3ccccc3)[C@]3(O)C[C@H](OC(=O)[C@H](O)[C@@H](NC(=O)c4ccccc4)c4ccccc4)C(C)=C1C3(C)C)[C@]1(OC(C)=O)CO[C@@H]1C[C@@H]2O [paclitaxel]
Emax (FaDu cells [1]; Homo sapiens, FaDu, paclitaxel alone, up to 10 μM, read-out: maximum effect (reduction of cell number)): 35% | cell number (FaDu cells [1]; paclitaxel alone 100 nM, fixed concentration method): about 65 % of the control value | attached cells showing damaged telomeres (SKOV3 cells; 1 and 12 hr): < 5% | detached cells showing damaged telomeres (SKOV3 cells; 1 hr): 40% | detached cells showing damaged telomeres (SKOV3 cells; 12 hr): 90% | treatment time after which shortening or deletion of telomeres was detectable (SKOV3 cells; FaDu and SKOV3): 1 h | shortening of the average telomeric length (telomere length; 200 nM paclitaxel 24 hr, combination: 10 μM AZT 24 hr pretreatment then AZT plus paclitaxel 24 hr): 13% | telomere shortening on extending treatment (telomere length; paclitaxel 36 hr): did not produce a greater telomere shortening | detached cell fraction (FaDu cells [2]): about 40% | peak telomerase activity ([3]; 3 hr): ~180 % of control value | telomerase activity ([3]; 24 hr): returning to the baseline level | telomerase activity ([3]; 48 hr): 50 % of the control values | End-of-experiment body weight [4]: 97∀6 ^a % of pretreatment value | body weight loss compared to the pretreatment weight [4]: < 3% | release of DNA-histone complex from the nucleus to the cytoplasm (FaDu, MCF7 and PC3 cells): significant enhancement | toxicity-related death [5]: no toxicity-related death | detached cell fraction (PC3 cells): 68% | time of peak telomerase activity [6]: 12 h | telomerase activity ([6]; 96 hr): about 50 % of the baseline level | median time to reach moribundity ([7]; Kaplan Meier analysis, monitored 100 days): 42 days | tumor-free survivors ([7]; of 12 animals): did not show tumor-free survivors
